Data taken from patent publication US20240207422A1, “NERVE TARGETING PEPTIDE CONJUGATES AND METHODS OF USE” (Alume Biosciences, Inc., priority 2022, published 2024).

Tested on: excised human nerve tissue
Test: Phage display selection on excised human nerve tissue (Nerve2, Nerve3), NextGen sequence counts
Type: binding
Conditions: unique sequence count (relative enrichment); Nerve2 only
Procedure: Several m13 phage libraries were constructed expressing randomized variants of a parent peptide (QVPWEEPYYVVKKS-SGGL; SEQ ID NO: 576). In particular, the first 14 amino acids of the parent peptide were randomized using degenerate oligonucleotide synthesis to obtain a diverse set of peptides with a mutation rate of about 50% per residue.
To accomplish this, synthesis was carried out by the XXK codon design approach, where X is any base and K is G or T. To bias synthesis towards the parent sequence, synthesis was carried out at each X position with a mixture of about 70%-85% of the parent nucleotide and 15-30% of the remaining 3 nucleotides. The resulting molecules were inserted into fADL-1e (Antibody Design Laboratories), which is a type 3 phage display vector having a cloning site on the N-terminal side of the full-length gene III protein. The fusion proteins are directed to the periplasm by the PelB leader peptide, which is inserted in the vector […].
Collectively, the phage display libraries used in the screens comprised about 600 million peptides, with sequencing analysis confirming a mutation rate of about 50% per residue.
Phage libraries were independently processed, as follows, with five biological samples: two independent samples of excised human nerve tissue, one sample of a human nerve extract, and two independent samples of human muscle tissue, as follows:
Excised Human Nerve Tissue: For each of the two independent samples, phage were processed through multiple cycles of selection, with representative phage being isolated and sequenced after each selection cycle. Specifically, for selection using human nerve tissue, a sample of […] tissue (2 mm by 2 mm) was washed prior to mixing and incubation with a phage library. After incubation, the mixture (containing mostly intact nerves with phage particles that had variable affinity for nerves) was centrifuged and the nerve pellet washed multiple times with PBS to remove phage with little or no affinity for nerve tissue. The pellet was homogenized and plated for titering and reamplification. Phage that were bound at each round were sequenced. NextGen sequencing of pools after 2, 3 and 4 rounds of selection were used to isolate candidate sequences that were further analyzed using bioinformatics.
NextGen sequencing of pools after 2, 3 and 4 rounds of selection were used to isolate candidate sequences from each of the five samples. These five data sets were then analyzed as described in the next section.
Peptide and vector sequences were translated starting at the first start codon in the nucleotide sequence. […] Trimmed peptides with identical sequences were combined and quantified according to their frequency (count).
Following processing, an R script was written to merge the unique peptide sequences (with counts 6 or greater) from the 5 different data sets to analyze the overlap between nerve and muscle binding activity.
For the single Nerve2, Nerve3, and Plated Nerve2 (pn2) subsets, the number of counts for each group was set at a threshold giving rise to at least 100 peptides. […] As highlighted in yellow in FIG. 1B, the representative group also included 6 unique peptides overlapping between nerve2 and nerve3, 200 unique peptides overlapping between nerve2 and plated nerve2 (at least 60 counts), 4 unique peptides overlapping between nerve3 and plated nerve2. Finally, as highlighted in green in FIG. 1B, the representative group also included […] common to the nerve2, nerve3, and plated nerve2 sets.

Substance | Count
241 (HDASGVSYYDRRES) [compound 241] | 21
242 (HVGLPEPHHVMIHS) [compound 242] | 20
243 (EVPSLQPYHGGKKS) [compound 243] | 19
244 (QIPSQEPYHRFKES) [compound 244] | 19
245 (QIPGEAPYSFGKKY) [compound 245] | 18
246 (QNPWHYPYSLVSTA) [compound 246] | 17
247 (DVPFRLWNFAVVDS) [compound 247] | 15
248 (HFAWVVPNDAVKAS) [compound 248] | 15
249 (HFSWEERYRVVHKS) [compound 249] | 15
250 (RVPSDEPYSFLRQS) [compound 250] | 15
251 (TQRWAEPYHVFHKS) [compound 251] | 15
252 (HVLRHEPYYVVAQA) [compound 252] | 14
253 (LLPSDEAHYIVKHS) [compound 253] | 14
254 (NVLSEQPGYVMEYL) [compound 254] | 14
255 (QLPWTNPFHVVNKY) [compound 255] | 14
256 (QYSLDESPYGAKKS) [compound 256] | 14
257 (YVPGAAPIGIVHKS) [compound 257] | 14
258 (HFAWEEVFHVKKNF) [compound 258] | 13
259 (HSPSKESHYVLENM) [compound 259] | 13
260 (HVPFGGTYSVEGES) [compound 260] | 13
261 (HYRCVGSCYVVAKS) [compound 261] | 13
262 (LFRSQAQNVLVISH) [compound 262] | 13
263 (QFPGSELTVSVIQV) [compound 263] | 13
264 (QFSSQEAHYELNTP) [compound 264] | 13
265 (QSPWDEPYYGVLMA) [compound 265] | 13

Substance | Count
266 (QSTPEERYHRVIQA) [compound 266] | 13
267 (QVPLGAPFYAVRKS) [compound 267] | 13
268 (YERWEAPFYDVQKS) [compound 268] | 13
269 (HVAWNEPHHVLLQI) [compound 269] | 12
270 (HVLWEDPYYVVRMP) [compound 270] | 12
271 (HVQLREHYFVVYSS) [compound 271] | 12
272 (HVSSEAPYYVLNKS) [compound 272] | 12
273 (LFPLDETYYVAKVS) [compound 273] | 12
274 (QALLEEKYTALKKS) [compound 274] | 12
275 (QFPWEQRNYDVKKY) [compound 275] | 12
276 (QIPLDARSYLLKRP) [compound 276] | 12
277 (QIQREEPFYVLKLY) [compound 277] | 12
278 (QLPSKASNSVQQTF) [compound 278] | 12
279 (QLPWEKPYYDVEVT) [compound 279] | 12
280 (QNPGKSPYYVVHKS) [compound 280] | 12
281 (QVWGEVPLSGAKRF) [compound 281] | 12
282 (RVPSAAAYYGAKIS) [compound 282] | 12
283 (VFSSDSQYLFVPNF) [compound 283] | 12
284 (DRPVEVPSDFVNNS) [compound 284] | 11
285 (DVLGIERYYAVKDP) [compound 285] | 11
286 (HHPGVGPFHVVKRS) [compound 286] | 11
287 (HLSQYEPYDPVDKS) [compound 287] | 11
288 (HVAWDGAYNLVQTT) [compound 288] | 11
289 (HVPGQDPYDVQATY) [compound 289] | 11
290 (HVPLEGSYLDDINS) [compound 290] | 11

Substance | Count
291 (HVTLAEPHLLLGKS) [compound 291] | 11
292 (KFSLVHPEYYGKET) [compound 292] | 11
293 (NLPGVEQYNLPNSS) [compound 293] | 11
294 (NVPWQVPYSVLKMP) [compound 294] | 11
295 (QFAGEVPYYFATDL) [compound 295] | 11
296 (QHPMDPTYHVVIKA) [compound 296] | 11
297 (QILSEEPYYRVDMP) [compound 297] | 11
298 (QIPLAYSNYVVNKY) [compound 298] | 11
299 (QITFEVPCCLVRKG) [compound 299] | 11
300 (QLGLDKLNHLVKKS) [compound 300] | 11
301 (QSSSVEPYYVLQNS) [compound 301] | 11
302 (QVACEQPYYNVNCS) [compound 302] | 11
303 (RLPEAEPYYLMTQP) [compound 303] | 11
304 (RVPGERQYDALNLS) [compound 304] | 11
305 (YVPLQEPYYVVKQS) [compound 305] | 11
306 (ESALKEPHQVLKHS) [compound 306] | 10
307 (HAPADQLYYPVWKP) [compound 307] | 10
308 (HFPWEEPYHVAKRS) [compound 308] | 10
309 (HFQSEEPYHIPHKH) [compound 309] | 10
310 (HHPLQEPYYVVEKS) [compound 310] | 10
311 (HMPGREPYYVVTTS) [compound 311] | 10
312 (HVAWKGPYYVLETH) [compound 312] | 10
313 (HVHGAPSYSVLKHS) [compound 313] | 10
314 (HVLWVEPYYVINKY) [compound 314] | 10

Same assay, conditions: unique sequence count (relative enrichment); peptides overlapping between Nerve2 and Plated Nerve2

Substance | Count
211 (KLPLEEPFYIVTPS) [compound 211] | 66
212 (QIRWEDASYVEKTS) [compound 212] | 66
213 (QVPWKGQYYVVASS) [compound 213] | 66
214 (HGPTDGPYYVSKKS) [compound 214] | 65
215 (HILRQEPYYVLTNY) [compound 215] | 65
216 (HSHGQELFYVVTNT) [compound 216] | 65
217 (HVPWGEPEALVKKS) [compound 217] | 65
218 (QPPREQPYHIMKNS) [compound 218] | 65
219 (QTSWAGPHDRVTKA) [compound 219] | 65
220 (QVPCEEPWCLVKVN) [compound 220] | 65
221 (QVPWQDPVYDVNNA) [compound 221] | 65
222 (YVKTVNPDSVLKIS) [compound 222] | 65
223 (HVHFTDPHYVMKKS) [compound 223] | 64
224 (HVPLQGPYYVKQKP) [compound 224] | 64
225 (NVEWEIPYYFVKKF) [compound 225] | 64
226 (QFAWVQPYYFAKKS) [compound 226] | 64
227 (QHPVKERDEFWKES) [compound 227] | 64
228 (QIPWGETTAGIKKL) [compound 228] | 64
229 (EFSREQPNDFLNKS) [compound 229] | 63
230 (HIPFAEHDGVVPIS) [compound 230] | 63
231 (HVTSHEARYLAQNS) [compound 231] | 63
232 (EFTWEGLSEGVNEP) [compound 232] | 62
233 (HVSSEYPYYVVKHT) [compound 233] | 62
234 (HVPAEPLVYENQKS) [compound 234] | 61
235 (LIVSQPSYLAVQYS) [compound 235] | 61
236 (QLPLAKPNSVVATS) [compound 236] | 61
237 (RLAWEEPHYVVKKS) [compound 237] | 61
238 (KFTTQDSYYFGTQT) [compound 238] | 60
239 (NVTSREPYHLLEKS) [compound 239] | 60
240 (QLPFIGPYHVAKKS) [compound 240] | 60
